Series [1] can be described thus: Stability in human liver microsomes assessed as parent compound remaining at 3 uM measured after 10 mins. As to conditions: read-out: Stability. The series is classed as ADME, Microsome. A general note: Microsomes from liver hold many membrane-bound enzymes, among them those of drug oxidation.
The nature of series [2]: Oral bioavailability in mouse. The series is classed as ADME, organism-based. As to conditions: in vivo.
Series [3] can be described thus: Clearance in iv dosed mouse. Format: ADME, organism-based. The settings on record: in vivo.
The nature of series [4]: Half life in iv dosed rat. The settings on record: in vivo.
A short description of series [5]: Oral bioavailability in cynomolgus monkey. As to conditions: in vivo.
Series [6] can be described thus: Half life in iv dosed cynomolgus monkey. As to conditions: in vivo.
Series [7] can be described thus: Drug metabolism in human liver microsomes assessed as rate of disappearance at 3 uM. The series is classed as ADME, Microsome.
Series [8] addresses T1, C-C chemokine receptor type 5 (Homo sapiens, UniProt P51681). Kind of series: Binding affinity to CCR5 in T-cell (unknown origin).
Series [9] concerns Cynomolgus monkey. Kind of series: In vivo antagonist activity at CCR2 in po dosed cynomolgus monkey assessed as inhibition of MCP1-induced chemotaxis administered once daily for three days followed by MCP1 stimulation and measured after 18 hrs. Format: functional, organism-based. As to conditions: Macaca fascicularis.
The test system of series [10] is Mus musculus. Kind of series: Protection against C57BL/6-SVJ12 mouse model of thioglycollate-induced peritonitis administered orally 1 hr prior to thioglycollate-stimulation for 48 hrs and subsequent bid dosing for 3 days following 1 hr thioglycollate-stimulation measured by Wright-Giemsa Staining based flow cytometry. The series is classed as functional, organism-based. A general note: A flow cytometer gives signals particle by particle.

Series [11] can be described thus: Toxicity in rat administered as single dose. As to conditions: in vivo.
A short description of series [12]: Toxicity in monkey administered as single dose. Set-up: species or system Macaca mulatta. As to conditions: rhesus monkey, in vivo.
Series [13] in a line: Toxicity in rat measured after 14 days. As to conditions: in vivo, 336 h.
Series [14] is described as follows: Cardiotoxicity in telemetered monkey assessed as changes in QTc interval at 30 mg/kg. Format: toxicity, organism-based, Macaca mulatta. The settings on record: rhesus monkey, in vivo.
Series [15] has as its target T1, C-C chemokine receptor type 5.
Description: Antagonist activity at CCR5 (unknown origin) expressed in human HT1080 cells assessed as blockade of MIP1beta-binding to receptor
Series [16] deals with T2, hERG (KCNH2) (Homo sapiens, UniProt Q12809). Kind of series: in vitro.
T2 sequence (Q12809 whole entry): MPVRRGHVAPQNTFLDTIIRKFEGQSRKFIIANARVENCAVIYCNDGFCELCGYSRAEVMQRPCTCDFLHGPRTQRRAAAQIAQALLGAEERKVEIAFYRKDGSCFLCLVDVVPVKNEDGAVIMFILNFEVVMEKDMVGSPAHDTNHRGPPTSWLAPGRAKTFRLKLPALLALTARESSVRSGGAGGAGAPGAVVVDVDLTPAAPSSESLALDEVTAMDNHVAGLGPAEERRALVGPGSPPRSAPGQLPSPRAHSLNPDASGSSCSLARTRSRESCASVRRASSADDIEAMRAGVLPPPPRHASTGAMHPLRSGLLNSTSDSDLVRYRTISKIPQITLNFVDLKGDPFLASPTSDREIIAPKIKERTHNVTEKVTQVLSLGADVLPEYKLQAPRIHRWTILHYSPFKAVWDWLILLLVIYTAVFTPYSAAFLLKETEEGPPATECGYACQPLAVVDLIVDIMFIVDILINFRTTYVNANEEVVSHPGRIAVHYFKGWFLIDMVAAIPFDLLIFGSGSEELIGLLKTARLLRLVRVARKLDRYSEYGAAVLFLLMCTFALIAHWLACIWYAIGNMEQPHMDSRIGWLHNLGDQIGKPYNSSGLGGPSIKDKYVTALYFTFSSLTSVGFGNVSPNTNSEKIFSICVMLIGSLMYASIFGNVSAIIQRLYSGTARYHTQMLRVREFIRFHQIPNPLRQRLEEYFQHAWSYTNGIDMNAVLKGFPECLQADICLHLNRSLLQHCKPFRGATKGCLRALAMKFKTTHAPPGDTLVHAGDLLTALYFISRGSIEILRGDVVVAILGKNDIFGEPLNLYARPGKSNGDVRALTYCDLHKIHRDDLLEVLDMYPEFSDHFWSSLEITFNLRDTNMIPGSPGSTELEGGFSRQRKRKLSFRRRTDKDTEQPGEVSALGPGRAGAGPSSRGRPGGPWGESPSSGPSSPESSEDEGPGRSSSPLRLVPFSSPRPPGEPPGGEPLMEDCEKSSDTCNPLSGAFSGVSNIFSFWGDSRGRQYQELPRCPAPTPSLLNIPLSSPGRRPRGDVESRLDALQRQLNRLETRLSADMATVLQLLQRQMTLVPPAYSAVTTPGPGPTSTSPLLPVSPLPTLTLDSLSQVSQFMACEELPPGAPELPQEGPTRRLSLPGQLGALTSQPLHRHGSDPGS
Description: Inhibition of human ERG at 10 uM by manual patch-clamp assay relative to control
Series [17] is described as follows: Permeability of the compound at pH 7.4 by PAMPA. Format: ADME. The settings on record: read-out: permeability.
Series [18] deals with C-C chemokine receptor type 2 (Homo sapiens, UniProt P41597).
C-C chemokine receptor type 2, sequence (P41597 whole entry): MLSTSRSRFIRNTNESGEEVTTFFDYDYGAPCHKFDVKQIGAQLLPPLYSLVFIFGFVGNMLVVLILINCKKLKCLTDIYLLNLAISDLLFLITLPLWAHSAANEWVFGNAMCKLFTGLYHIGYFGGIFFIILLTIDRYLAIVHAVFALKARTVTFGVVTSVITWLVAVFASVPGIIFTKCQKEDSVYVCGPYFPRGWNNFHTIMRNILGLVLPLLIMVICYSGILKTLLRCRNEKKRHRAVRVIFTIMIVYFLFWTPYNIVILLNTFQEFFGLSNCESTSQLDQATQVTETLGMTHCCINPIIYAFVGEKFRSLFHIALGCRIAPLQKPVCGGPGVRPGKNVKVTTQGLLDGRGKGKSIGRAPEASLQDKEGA
Description: Displacement of [125I]MCP1 from CCR2 in human PBMC measured after 30 mins
In series [19] the target is T2, hERG (KCNH2). The series is described as follows: Inhibition of human ERG at 30 uM by manual patch-clamp assay relative to control. Background: The patch-clamp technique gives a direct electrical read-out from membranes.

The bioavailability is the share of a dose that reaches the circulation, judged against a reference dose that is usually intravenous. One may read the clearance as the volume of plasma or blood freed of the substance per unit of time. Broadly, the half-life is the time needed for the level to fall by half in the phase considered. For orientation: Kd means the equilibrium constant for the complex coming apart. The inhibition is the change of the read-out against control, counted positive when it falls. In general, IC50 refers to the midpoint of a concentration-inhibition curve.

Calls of active or inactive are those of the source.

T1 sequence (P51681 whole entry): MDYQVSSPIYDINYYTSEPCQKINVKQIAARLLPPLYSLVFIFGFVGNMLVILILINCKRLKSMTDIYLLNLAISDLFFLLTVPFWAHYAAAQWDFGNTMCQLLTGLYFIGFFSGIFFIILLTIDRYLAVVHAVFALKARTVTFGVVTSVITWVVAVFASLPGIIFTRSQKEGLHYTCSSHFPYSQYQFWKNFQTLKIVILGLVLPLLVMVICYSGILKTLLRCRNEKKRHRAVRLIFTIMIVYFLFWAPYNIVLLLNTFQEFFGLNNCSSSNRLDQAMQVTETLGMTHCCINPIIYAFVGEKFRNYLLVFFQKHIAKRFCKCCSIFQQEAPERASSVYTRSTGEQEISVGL

With `CC(=O)N[C@@H]1C[C@H](N(C)C(C)C)CC[C@@H]1N1CC[C@H](Nc2ncnc3ccc(C(F)(F)F)cc23)C1=O`, in [1], the remaining at 10 min, 3 µM turned out to be 95%. The bioavailability in series [2] is 28%; in series [5] it was 46%. In series [3], this compound came in with a clearance of 38 mL/min/kg. For the same compound, the half-life is 5.1 h in series [4] and 3.2 h in series [6]. For the same compound, in series [7], the Drug metabolism was determined as 0.01 nmol/min. The compound further had a Kd in series [8] of 23.6 nM. The inhibition entry in series [9] was “Active”. For the same compound, the result in series [10] was Active. Further, the Activity result in [11], in [12], in [13] and in [14] was “Non-Toxic” in each case. This compound registered an IC50 in series [15] of 780 nM. The compound further showed an inhibition at 10 µM in series [16] of 33%.
In the case of `CC(C)N(C)[C@@H]1CC[C@H](N2CC[C@H](NC(=O)c3cccc(C(F)(F)F)c3)C2=O)[C@H](N(C)S(C)(=O)=O)C1`, in [17], the Papp was found to be 6.5 ×10⁻⁶ cm/s. Further, the remaining at 10 min, 3 µM in [1] is 100%. This compound came in with a bioavailability in [2] of 11%. This compound also registered a clearance in [3] of 67 mL/min/kg. Further, the Drug metabolism in [7] was 0 nmol/min. The IC50 came out at 1.4 nM in [18] and 1570 nM in series [15]. The same compound gave an inhibition at 10 µM in series [16] of 7%.
Turning to `CCC[C@@H]1C[C@H](N(C)C(C)C)CC[C@@H]1N1CC[C@H](Nc2ncnc3ccc(C(F)(F)F)cc23)C1=O`, the Papp in series [17] was 52.9 ×10⁻⁶ cm/s. In addition, in series [1], the remaining at 10 min, 3 µM is 100%. For the same compound, in [7], the Drug metabolism came out at 0 nmol/min.
For the compound `CC(C)N(C)[C@@H]1CC[C@H](N2CC[C@H](Nc3ncnc4ccc(C(F)(F)F)cc34)C2=O)[C@H](CS(C)(=O)=O)C1`, in [19], the inhibition at 30 µM is 16%. For the same compound, in series [17], the Papp amounted to 1.4 ×10⁻⁶ cm/s. Besides, in [1], the remaining at 10 min, 3 µM is 99%. In [7], the Drug metabolism came to 0 nmol/min. Besides, the IC50 in [18] came out at 0.9 nM; in [15] it was 190 nM.
For the compound `CC(C)N(C)[C@@H]1CC[C@H](N2CC[C@H](NC(=O)c3cccc(C(F)(F)F)c3)C2=O)[C@H](CS(C)(=O)=O)C1`, the Papp in [17] turned out to be 9.4 ×10⁻⁶ cm/s. Besides, the remaining at 10 min, 3 µM in series [1] turned out to be 100%. The same compound returned a clearance in series [3] of 70 mL/min/kg. In addition, the Drug metabolism in series [7] was found to be 0 nmol/min. For the same compound, the half-inhibitory concentration (IC50) in series [15] stood at 1640 nM.
Turning to `CC(C)N(C)[C@@H]1CC[C@H](N2CC[C@H](NC(=O)c3cccc(C(F)(F)F)c3)C2=O)[C@H](NS(C)(=O)=O)C1`, the Papp in series [17] is 59.3 ×10⁻⁶ cm/s. Besides, the remaining at 10 min, 3 µM in [1] was found to be 85%. The compound also gave a bioavailability in [2] of 35%. This compound showed a clearance in [3] of 258 mL/min/kg. In addition, in series [7], the Drug metabolism came to 0.05 nmol/min. Moreover, the IC50 in [18] amounted to 1.9 nM; in series [15] it was 3470 nM.
Regarding `CC(C)N(C)[C@@H]1CC[C@H](N2CC[C@H](Nc3ncnc4ccc(C(F)(F)F)cc34)C2=O)[C@H](NS(C)(=O)=O)C1` [BMS-741672], the Papp in series [17] was found to be 39.4 ×10⁻⁶ cm/s. Also, the remaining at 10 min, 3 µM in series [1] is 58%. In addition, in series [7], the Drug metabolism stood at 0.13 nmol/min. The IC50 in series [18] was 0.4 nM; in [15], 287 nM. This compound yielded an inhibition at 10 µM in series [16] of 74%.

For the origin of these results see ChEMBL document CHEMBL4339198, “Use of a Conformational-Switching Mechanism to Modulate Exposed Polarity: Discovery of CCR2 Antagonist BMS-741672” (ACS Med Chem Lett, 2019).
